Entries after “also recorded” stand apart in the source; their conditions may differ.
Columns and labels:
BCE cells = experiment: Apoptosis by FACS (DNA content) in BCE cells; format: cell-based, bovine; conditions: 0.5-5 μM, 20 hours
Protocol: Cells were cultured in plastic tissue culture dishes for 48 hours in presence of growth media as described above, until reaching 40-50% confluency. Disulfiram was then added to the cells for 20 hours. The cells were removed from the plates by EDTA-trypsin and fixed in ice-cold 70% ethanol (BioLab, Israel) in -20° C. for 2 hr to overnight. The fixed cells (2-5×10^6) were washed once with HEPES-buffered saline (HBSS) and incubated with 0.5 mg/ml RNAseH (Boehringer Mannheim). Afterwards the cells were resuspended in HBSS containing 50 μg/ml propidium iodide (Sigma) and subsequently analyzed on a FACSort flow cytometer (Beckton Dickinson Inc.) using Lysis II software. For the analysis, 10,000 cells were examined from each sample. The percentage of the hypodiploid cells was measured (Darzynkiewicz, 1992; Afanasyev, 1993). The cell cycle histogram was divided into four regions according to the cell cycle phases: Ap, apoptotic cells; G1, diploid cells; S, intermediate cells; and G2 /M, tetraploid cells.
Capillary endothelial cells were grown during 48 hours to 40-50% confluency and disulfiram was then added to the cells for 20 hours as described in section (g) of "Materials and Methods" above. […] The abundance of apoptotic cells was dose-dependent.

[1] = tested on: Lewis lung (D122) metastasis in the lungs; experiment: Lewis lung carcinoma metastasis, i.v. model; format: in vivo, C57/BL mice
Text: The Lewis lung carcinoma (3LL), which originated spontaneously in a C57/BL/6J (H-2^b) mouse, is a malignant tumor that produces spontaneous lung metastases. The metastatic clone D122, kindly provided by Prof. Lea Eisenbach (Weizmann Institute of Science, Rehovot, Israel), was used herein for tissue culture and for in vivo experiments. The cell cultures were maintained in DMEM supplemented with 10% heat-inactivated FCS, glutamine, antibiotics, sodium pyruvate and nonessential amino acids.
To distinguish between the effect on the migration of the cells from the main tumor and the development of a tumor from a metastatic foci, the i.v. model was used. D122 cells (5×10^5) were injected i.v. to the tail of C57/B1 male mice and after 24 days mice were killed and their lungs weighed. Treatment with disulfiram was started 3 days following the injection of D122 cells. […]
To distinguish between the effect on the migration of the cells from the main tumor and the development of a tumor from a metastatic foci, the i.v. metastastis model was used as described in section (f) of materials and Methods above. D122 cells were injected i.v. to the tail of C57/B1 male mice. Three days after, disulfiram was administered to the mice per os 3 times per week, at concentrations of 13-40 μg/mouse.

Which results are given for `CCN(CC)C(=S)SSC(=S)N(CC)CC` [disulfiram, Bis(diethylthiocarbamoyl) disulfide]?
apoptosis by FACS analysis of DNA content (BCE cells): induced in a dose-dependent manner a sub-diploid apoptotic population; also recorded: appearance of a sub-diploid apoptotic population of cells; dose dependence of abundance of apoptotic cells (FACS) (BCE cells): dose-dependent; metastasis in the lungs compared with water-fed control (in words) ([1]; 13-40 μg, 3 times a week, 24 days, n=6, p=0.023-0.037): significantly smaller; inhibition of the development of metastatic foci in the lungs ([1]; 13-40 μg/mouse per os 3 times per week): 83-95%; decrease of metastasis to the lungs ([1]; 13-40 μg/mouse, 3 times a week, 24 days): 6-19 fold

Reference: US6288110A, “Pharmaceutical compositions comprising disulfiram” (Yeda Research and Development Co Ltd., priority 1998, dated 2001)
